# Patent publication US12617795B2, “Substituted 6,7-dihydro-5H-pyrrolo[3,4-d]pyrimidines, 5,7-dihydrofuro[3,4-d]pyrimidines, and pyrido[2,3-d]pyrimidines as KCC2 modulators” (Astrazeneca AB, priority 2020, dated 2026)
# Molecular target: T1, KCC2 (Homo sapiens, UniProt Q9H2X9)
# T1 construct: expressed in transfected cells; host or cells: HEK293 cells electroporated (Maxcyte STX) with the pcDNA3.1 KCC2 plasmid
# T1 sequence (Q9H2X9 1-1139): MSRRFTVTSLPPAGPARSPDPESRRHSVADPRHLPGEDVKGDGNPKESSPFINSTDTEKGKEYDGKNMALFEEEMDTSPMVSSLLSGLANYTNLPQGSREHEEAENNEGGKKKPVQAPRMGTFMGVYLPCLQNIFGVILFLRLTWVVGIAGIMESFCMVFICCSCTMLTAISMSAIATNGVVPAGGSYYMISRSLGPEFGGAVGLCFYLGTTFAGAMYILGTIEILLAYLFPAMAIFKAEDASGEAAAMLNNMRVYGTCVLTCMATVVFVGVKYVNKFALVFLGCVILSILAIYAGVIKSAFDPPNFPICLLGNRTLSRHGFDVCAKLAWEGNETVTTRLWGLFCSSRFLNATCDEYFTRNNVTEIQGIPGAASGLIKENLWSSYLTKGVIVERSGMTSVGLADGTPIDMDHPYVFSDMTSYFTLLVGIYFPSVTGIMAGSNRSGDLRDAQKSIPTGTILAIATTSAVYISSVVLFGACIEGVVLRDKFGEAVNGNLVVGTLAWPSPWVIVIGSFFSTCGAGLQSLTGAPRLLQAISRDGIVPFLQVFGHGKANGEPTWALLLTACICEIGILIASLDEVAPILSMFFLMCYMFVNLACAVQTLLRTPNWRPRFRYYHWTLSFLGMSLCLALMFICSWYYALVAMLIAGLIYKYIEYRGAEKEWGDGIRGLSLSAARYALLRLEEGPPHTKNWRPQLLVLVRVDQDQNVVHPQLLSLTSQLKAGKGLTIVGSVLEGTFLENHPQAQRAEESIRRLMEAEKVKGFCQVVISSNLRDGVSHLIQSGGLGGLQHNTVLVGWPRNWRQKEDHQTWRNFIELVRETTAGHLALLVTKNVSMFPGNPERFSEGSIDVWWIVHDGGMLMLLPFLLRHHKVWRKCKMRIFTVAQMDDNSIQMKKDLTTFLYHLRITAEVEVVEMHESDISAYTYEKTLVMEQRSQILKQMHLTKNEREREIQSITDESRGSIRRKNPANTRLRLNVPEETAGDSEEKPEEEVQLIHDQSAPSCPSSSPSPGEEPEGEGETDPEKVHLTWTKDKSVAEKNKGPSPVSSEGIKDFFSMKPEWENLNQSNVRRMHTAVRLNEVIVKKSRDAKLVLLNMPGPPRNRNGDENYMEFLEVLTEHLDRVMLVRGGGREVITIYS
# Assay: KCC2 thallium transport FLIPR-based assay (Tl+ influx in HEK293 cells expressing KCC2)
# Assay type: cell-based
# Conditions: 90 min compound incubation at RT, thallium flux at 120 s used to determine EC50
# Outline: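 Transient electroporation of codon-optimised human KCC2 into HEK293 cells, plated and cultured 48 h before dye loading (1 h, RT). Compounds run as a 12-point 1:2 series from 100 μM top, 90 min RT in buffer containing bumetanide; Tl+ flux read by FLIPR after stimulus addition, 1 s intervals over 120 s, with the 120 s signal used for EC50.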
row,Compound,EC50 [µM]
1,"CCCCCc1ccc(Nc2nc(N3CCO[C@H](C)C3)nc3c2CN(C(C)C)C3=O)cc1 [Example 55, 2-[(2R)-2-methylmorpholin-4-yl]-4-[(4-pentylphenyl)amino]-6-(propan-2-yl)-5,6-dihydro-7H-pyrrolo[3,4-d]pyrimidin-7-one]",2.3
2,"CCC(C)c1ccc(Nc2nc(N3CCO[C@H](C)C3)nc3c2CN(C(C)C)C3=O)cc1 (stereo partly drawn) [Example 56, 4-{[4-(butan-2-yl)phenyl]amino}-2-[(2R)-2-methylmorpholin-4-yl]-6-(propan-2-yl)-5,6-dihydro-7H-pyrrolo[3,4-d]pyrimidin-7-one]",3.28
3,"CC(C)N1Cc2c(Nc3ccc(OCc4ccccc4)cc3)nc(N3CCO[C@H](C)C3)nc2C1=O [Example 57, 4-[(4-(benzyloxy)phenyl]amino}-2-[(2R)-2-methylmorpholin-4-yl]-6-(propan-2-yl)-5,6-dihydro-7H-pyrrolo[3,4-d]pyrimidin-7-one]",3.6
4,"CC(C)N1Cc2c(Nc3ccc(C(F)(F)C(F)(F)F)cc3)nc(N3CCOC(C4CC4)C3)nc2C1=O (stereo not shown) [Example 58, 2-(2-cyclopropylmorpholin-4-yl)-4-{[4-(pentafluoroethyl)phenyl]amino}-6-(propan-2-yl)-5,6-dihydro-7H-pyrrolo[3,4-d]pyrimidin-7-one]",3.78
5,"CCCc1ccc(Nc2nc(N3CCOC(C4CC4)C3)nc3c2CN(C(C)C)C3=O)cc1 (stereo not shown) [Example 59, 2-(2-cyclopropylmorpholin-4-yl)-6-(propan-2-yl)-4-[(4-propylphenyl)amino]-5,6-dihydro-7H-pyrrolo[3,4-d]pyrimidin-7-one]",4.46
6,"CCCc1ccc(Nc2nc(N3CCO[C@H](C)C3)nc3c2CN(C(C)C)C3=O)cc1 [Example 60, 2-[(2R)-2-methylmorpholin-4-yl]-6-(propan-2-yl)-4-[(4-propylphenyl)amino]-5,6-dihydro-7H-pyrrolo[3,4-d]pyrimidin-7-one]",4.82
7,"CC(C)N1Cc2c(Nc3ccc(C(F)(F)C(F)(F)F)cc3)nc(N3CCO[C@H](C)C3)nc2C1=O [Example 61, 2-[(2R)-2-methylmorpholin-4-yl]-4-{[4-(pentafluoroethyl)phenyl]amino}-6-(propan-2-yl)-5,6-dihydro-7H-pyrrolo[3,4-d]pyrimidin-7-one]",5.51
8,"CC(C)Oc1ccc(Nc2nc(N3CCOC(C4CC4)C3)nc3c2CN(C(C)C)C3=O)cc1 (stereo not shown) [Example 62, 2-(2-cyclopropylmorpholin-4-yl)-6-(propan-2-yl)-4-({4-[(propan-2-yl)oxy]phenyl}amino)-5,6-dihydro-7H-pyrrolo[3,4-d]pyrimidin-7-one]",5.66
9,"CC(C)N1Cc2c(Nc3ccc(C4CCC4)cc3)nc(N3CCOCC3)nc2C1=O [Example 63, 4-[(4-cyclobutylphenyl)amino]-2-(morpholin-4-yl)-6-(propan-2-yl)-5,6-dihydro-7H-pyrrolo[3,4-d]pyrimidin-7-one]",5.71
10,"CC(C)N1Cc2c(Nc3ccc(OC4CCCC4)cc3)nc(N3CCO[C@H](C)C3)nc2C1=O [Example 64, 4-{[4-(cyclopentyloxy)phenyl]amino}-2-[(2R)-2-methylmorpholin-4-yl]-6-(propan-2-yl)-5,6-dihydro-7H-pyrrolo[3,4-d]pyrimidin-7-one]",5.76
11,"CC(C)N1Cc2c(Nc3ccc(CC(F)(F)F)cc3)nc(N3CCO[C@H](C)C3)nc2C1=O [Example 65, 2-[(2R)-2-methylmorpholin-4-yl]-6-(propan-2-yl)-4-{[4-(2,2,2-trifluoroethyl)phenyl]amino}-5,6-dihydro-7H-pyrrolo[3,4-d]pyrimidin-7-one]",7.65
12,"CC(C)N1Cc2c(Nc3ccc(-c4ccc(OCCNC(=O)OC(C)(C)C)cc4)cc3)nc(N3CCOC(C4CC4)C3)nc2C1=O (stereo not shown) [Example 66, tert-butyl {2-[(4′-{[2-(2-cyclopropylmorpholin-4-yl)-7-oxo-6-(propan-2-yl)-6,7-dihydro-5H-pyrrolo[3,4-d]pyrimidin-4-yl]amino}[1,1′-biphenyl]-4-yl)oxy]ethyl}carbamate]",0.917
13,"CCN1Cc2c(Nc3ccc(C(C)C)cc3)nc(N3CCO[C@H](C)C3)nc2C1=O [Example 67, 6-ethyl-2-[(2R)-2-methylmorpholin-4-yl]-4-{[4-(propan-2-yl)phenyl]amino}-5,6-dihydro-7H-pyrrolo[3,4-d]pyrimidin-7-one]",4.07
14,"CCN1Cc2c(Nc3ccc(C4CCCCC4)cc3)nc(N3CCO[C@H](C)C3)nc2C1=O [Example 68, 4-[(4-cyclohexylphenyl)amino]-6-ethyl-2-[(2R)-2-methylmorpholin-4-yl]-5,6-dihydro-7H-pyrrolo[3,4-d]pyrimidin-7-one]",1.94
15,"CC(C)N1Cc2c(Nc3ccc(-c4ccc(OCCNC(=O)OC(C)(C)C)cc4)cc3)nc(N3CCOCC3)nc2C1=O [Example 69, tert-Butyl (2-((4′-((6-isopropyl-2-morpholino-7-oxo-6,7-dihydro-5H-pyrrolo[3,4-d]pyrimidin-4-yl)amino)-[1,1′-biphenyl]-4-yl)oxy)ethyl)carbamate]",1.56
16,"C#CCCC1(CCOc2ccc(-c3ccc(Nc4nc(N5CCOCC5)nc5c4CN(C(C)C)C5=O)cc3)cc2)N=N1 [Example 70, 4-[(4′-{2-[3-(but-3-yn-1-yl)-3H-diaziren-3-yl]ethoxy}[1,1′-biphenyl]-4-yl)amino]-2-(morpholin-4-yl)-6-(propan-2-yl)-5,6-dihydro-7H-pyrrolo[3,4-d]pyrimidin-7-one]",1.83
17,"C#CCOc1ccc(-c2ccc(Nc3nc(N4CCOCC4)nc4c3CN(C(C)C)C4=O)cc2)cc1 [Example 71, 2-(morpholin-4-yl)-6-(propan-2-yl)-4-({4′-[(prop-2-yn-1-yl)oxy][1,1′-biphenyl]-4-yl}amino)-5,6-dihydro-7H-pyrrolo[3,4-d]pyrimidin-7-one]",4.13
18,"C[C@@H]1CN(c2nc(Nc3ccc(C4CCCCC4)cc3)c3c(n2)C(=O)N(CCCN(C)C)C3)CCO1 [Example 72, (R)-4-((4-cyclohexylphenyl)amino)-6-(3-(dimethylamino)propyl)-2-(2-methylmorpholino)-5,6-dihydro-7H-pyrrolo[3,4-d]pyrimidin-7-one]",1.53
19,"C[C@@H]1CN(c2nc(Nc3ccc(C4CCCCC4)cc3)c3c(n2)C(=O)N(CCN(C)C)C3)CCO1 [Example 73, 4-[(4-cyclohexylphenyl)amino]-6-[2-(dimethylamino)ethyl]-2-[(2R)-2-methylmorpholin-4-yl]-5,6-dihydro-7H-pyrrolo[3,4-d]pyrimidin-7-one]",2.73
20,"C[C@@H]1CN(c2nc(Nc3ccc(C4CCC4)cc3)c3c(n2)C(=O)N(CCCN(C)C)C3)CCO1 [Example 74, 4-[(4-cyclobulylphenyl)amino]-6-[3-(dimethylamino)propyl]-2-[(2R)-2-methylmorpholin-4-yl]-5,6-dihydro-7H-pyrrolo[3,4-d]pyrimidin-7-one]",3.7
21,"C[C@@H]1CN(c2nc(Nc3ccc(C4CCC4)cc3)c3c(n2)C(=O)N(CCN(C)C)C3)CCO1 [Example 75, 4-[(4-cyclobutylphenyl)amino]-6-[2-(dimethylamino)ethyl]-2-[(2R)-2-methylmorpholin-4-yl]-5,6-dihydro-7H-pyrrolo[3,4-d]pyrimidin-7-one]",3.77
22,"C#CCN1Cc2c(Nc3ccc(C(C)C)cc3)nc(N3CCOCC3)nc2C1=O [Example 76, 2-(morpholin-4-yl)-4-{[4-(propan-2-yl)phenyl]amino}-6-(prop-2-yn-1-yl)-5,6-dihydro-7H-pyrrolo[3,4-d]pyrimidin-7-one]",6.89
23,"CC(C)N1Cc2c(Nc3ccc(C4CCCCC4)cc3)nc(C3CCOCC3)nc2C1=O [Example 78, 4-((4-cyclohexylphenyl)amino)-6-isopropyl-2-(tetrahydro-2H-pyran-4-yl)-5,6-dihydro-7H-pyrrolo[3,4-d]pyrimidin-7-one]",3.08
24,"CC(C)N1Cc2c(Nc3ccc(C4CCCCC4)cc3)nc(-n3ccnc3)nc2C1=O [Example 79, 4-((4-cyclohexylphenyl)amino)-2-(1H-imidazol-1-yl)-6-isopropyl-5,6-dihydro-7H-pyrrolo[3,4-d]pyrimidin-7-one]",6.3
25,"Cc1ccccc1-c1ccc(Nc2nc(C3=CCOCC3)nc3c2CN(C(C)C)C3=O)cc1 [Example 80, 2-(3,6-dihydro-2H-pyran-4-yl)-6-isopropyl-4-((2′-methyl-[1,1′-biphenyl]-4-yl)amino)-5,6-dihydro-7H-pyrrolo[3,4-d]pyrimidin-7-one]",1.8
